Assay results from patent publication US20130035329A1, “THERAPEUTICALLY ACTIVE COMPOSITIONS AND THEIR METHODS OF USE” (priority 2009, published 2013).
pIC50: −log10 of the molar value.

What was measured:
[1] = molecular target: IDH1 R132H (Homo sapiens, UniProt O75874, R132H); assay: High Throughput Screening (HTS) for IDH1 R132H inhibitors (resazurin/NADPH fluorescence assay); format: biochemical; details: IDH1m; assay similar to Example 1; class symbols
Protocol: A compound described herein may be an inhibitor of IDH1m. […] B refers to an inhibitor of IDH1m with an IC50 between 1 μM and 50 μM. C refers to an inhibitor of IDH1m with an IC50 greater than 50 μM. D refers to a compound wherein an IC50 is not available.
Assays were conducted in a volume of 76 μl assay buffer (150 mM NaCl, 10 mM MgCl2, 20 mM Tris pH 7.5, 0.03% bovine serum albumin) as follows in a standard 384-well plate: To 25 ul of substrate mix (8 uM NADPH, 2 mM aKG), 1 μl of test compound was added in DMSO. The plate was centrifuged briefly, and then 25 μl of enzyme mix was added (0.2 μg/ml ICDH1 R132H) followed by a brief centrifugation and shake at 100 RPM. The reaction was incubated for 50 minutes at room temperature, then 25 μl of detection mix (30 μM resazurin, […]) was added and the mixture further incubated for 5 minutes at room temperature. The conversion of resazurin to resorufine was detected by fluorescent spectroscopy at Ex544 Em590 c/o 590.

[2] = test system: recurrent glioma; details: recurrent glioma patients; bevacizumab used with irinotecan; cited from earlier work

Sequence of IDH1 R132H (O75874 whole entry R132H): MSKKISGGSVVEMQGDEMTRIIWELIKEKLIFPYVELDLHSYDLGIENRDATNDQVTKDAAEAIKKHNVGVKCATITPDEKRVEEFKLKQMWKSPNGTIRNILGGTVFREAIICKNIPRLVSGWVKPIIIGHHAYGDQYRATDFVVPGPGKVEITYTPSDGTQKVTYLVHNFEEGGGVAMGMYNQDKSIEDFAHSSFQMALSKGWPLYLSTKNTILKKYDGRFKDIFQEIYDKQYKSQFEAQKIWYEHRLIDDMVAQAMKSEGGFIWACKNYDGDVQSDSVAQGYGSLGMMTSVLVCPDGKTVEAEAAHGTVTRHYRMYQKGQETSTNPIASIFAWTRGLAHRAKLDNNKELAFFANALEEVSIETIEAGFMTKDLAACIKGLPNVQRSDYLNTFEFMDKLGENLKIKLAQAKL

pIC50 [1] | Compound | 6-month survival [2]
4.30 to 6.00 | COc1ccccc1N1CCN(C(=O)c2cc(S(=O)(=O)Nc3ccc(C)c4cc[nH]c34)ccc2C)CC1 | –
4.30 to 6.00 | CCCCc1ccc(NS(=O)(=O)c2cc3c(c(C(=O)N4CCN(c5ccccc5OC)CC4)c2)OCCO3)cc1 | –
4.30 to 6.00 | CCCCc1ccc(NS(=O)(=O)c2ccc(C)c(C(=O)N3CCN(Cc4ccccc4C)CC3)c2)cc1 | –
4.30 to 6.00 | CCCCc1ccc(NS(=O)(=O)c2ccc(C)c(C(=O)N3CCN(C(=O)Oc4ccccc4)CC3)c2)cc1 | –
4.30 to 6.00 | CCCCc1ccc(NS(=O)(=O)c2ccc(C)c(C(=O)N3CCN(c4ccccc4C(C)C)CC3)c2)cc1 | –
4.30 to 6.00 | CCCCc1ccc(NS(=O)(=O)c2ccc(C)c(C(=O)N3CCN(c4cccnc4OC)CC3)c2)cc1 | –
4.30 to 6.00 | CCCCc1ccc(NS(=O)(=O)c2ccc(C)c(C(=O)N3CCN(c4ccnc(N(C)C)c4)CC3)c2)cc1 | –
< 4.30 | O=C(c1cccc(S(=O)(=O)Nc2ccccc2F)c1)N1CCN(c2ccccn2)CC1 | –
4.30 to 6.00 | CCCCc1ccc(NS(=O)(=O)c2ccc(C)c(C(=O)N3CCN(C(=O)Cc4ccccc4)CC3)c2)cc1 | –
4.30 to 6.00 | CCCCc1ccc(NS(=O)(=O)c2ccc(C)c(C(=O)N3CCN(CC(C)c4ccccc4)CC3)c2)cc1 (centres unmarked) | –
– | bevacizumab: "The anti-angiogenic agent bevacizumab"; listed among "exemplary antibodies" | 46%
4.30 to 6.00 | CCCCc1ccc(NS(=O)(=O)c2cccc(C(=O)N3CCN(c4ccccn4)CC3)c2)cc1 | –
4.30 to 6.00 | COc1ccccc1N1CCN(C(=O)c2cc(S(=O)(=O)Nc3ccc(C)cc3)ccc2C)CC1 | –
4.30 to 6.00 | CCCOc1ccc(NS(=O)(=O)c2ccc(C)c(C(=O)N3CCN(c4ccccc4OC)CC3)c2)cc1 | –
< 4.30 | O=C(c1cccc(S(=O)(=O)Nc2ccc(Cl)cc2)c1)N1CCN(c2ccccc2)CC1 | –
4.30 to 6.00 | COc1ccccc1N1CCCN(C(=O)c2cccc(S(=O)(=O)Nc3ccc(C(C)C)cc3)c2)CC1 | –
4.30 to 6.00 | CCOc1ccc(NS(=O)(=O)c2ccc(C)c(C(=O)N3CCN(c4ccccc4OC)CC3)c2)cc1 | –
4.30 to 6.00 | CCCCc1ccc(NS(=O)(=O)c2ccc(C)c(C(=O)N3CCN(c4ccc(F)cc4)CC3)c2)cc1 | –
4.30 to 6.00 | COCOc1ccc(NS(=O)(=O)c2ccc(C)c(C(=O)N3CCN(c4ccccc4OC)CC3)c2)cc1 | –
4.30 to 6.00 | COc1ccccc1N1CCN(C(=O)c2cc(S(=O)(=O)Nc3ccc4[nH]ccc4c3)ccc2C)CC1 | –
4.30 to 6.00 | CCCCc1ccc(NS(=O)(=O)c2ccc(C)c(C(=O)N3CCCN(c4ccccc4F)CC3)c2)cc1 | –
4.30 to 6.00 | COc1ccccc1N1CCN(C(=O)c2cc(S(=O)(=O)Nc3ccc(OCc4cn(Cc5ccccc5)nn4)cc3)ccc2C)CC1 | –
4.30 to 6.00 | CCCCc1ccc(NS(=O)(=O)c2ccc(C)c(C(=O)N3CCN(c4c(C)cccc4C)CC3)c2)cc1 | –
